From ChEMBL document CHEMBL5678818, “Discovery of potent SOS1 inhibitors that block RAS activation via disruption of the RAS-SOS1 interaction” (Proc Natl Acad Sci U S A, 2019)

How the values were obtained:
[1] = tested on: Epidermal growth factor receptor (Homo sapiens), P00533 [L858R]; test: Inhibition of EGFR L858R mutant (unknown origin) assessed as residual activity at 1000 nM by KINOMEscan analysis relative to control
[2] = target: Interferon-induced, double-stranded RNA-activated protein kinase (Homo sapiens) (UniProt P19525); test: Inhibition of PRKR (unknown origin) assessed as residual activity at 1000 nM by KINOMEscan analysis relative to control
[3] = target: Tyrosine-protein kinase JAK1 (Homo sapiens) (UniProt P23458); test: Inhibition of JAK1 JH2 pseudokinase domain (unknown origin) assessed as residual activity at 1000 nM by KINOMEscan analysis relative to control
[4] = target: Receptor tyrosine-protein kinase erbB-2 (Homo sapiens) (UniProt P04626); test: Inhibition of ERBB2 (unknown origin) assessed as residual activity at 1000 nM by KINOMEscan analysis relative to control
[5] = target: cAMP-dependent protein kinase catalytic subunit beta (Homo sapiens) (UniProt P22694); test: Inhibition of PKAC-beta (unknown origin) assessed as residual activity at 1000 nM by KINOMEscan analysis relative to control
[6] = target: Aurora kinase B (Homo sapiens) (UniProt Q96GD4); test: Inhibition of AURKB (unknown origin) assessed as residual activity at 1000 nM by KINOMEscan analysis relative to control
[7] = target: Cyclin-dependent kinase 14 (Homo sapiens) (UniProt O94921); test: Inhibition of PFTK1 (unknown origin) assessed as residual activity at 1000 nM by KINOMEscan analysis relative to control
[8] = target: Cyclin-dependent kinase 18 (Homo sapiens) (UniProt Q07002); test: Inhibition of PCTK3 (unknown origin) assessed as residual activity at 1000 nM by KINOMEscan analysis relative to control
[9] = target: Vascular endothelial growth factor receptor 3 (Homo sapiens) (UniProt P35916); test: Inhibition of FLT4 (unknown origin) assessed as residual activity at 1000 nM by KINOMEscan analysis relative to control
[10] = target: T1, Phosphorylase b kinase gamma catalytic chain, liver/testis isoform (Homo sapiens) (UniProt P15735); test: Inhibition of PHKG2 (unknown origin) assessed as residual activity at 1000 nM by KINOMEscan analysis relative to control
T1 sequence (whole entry): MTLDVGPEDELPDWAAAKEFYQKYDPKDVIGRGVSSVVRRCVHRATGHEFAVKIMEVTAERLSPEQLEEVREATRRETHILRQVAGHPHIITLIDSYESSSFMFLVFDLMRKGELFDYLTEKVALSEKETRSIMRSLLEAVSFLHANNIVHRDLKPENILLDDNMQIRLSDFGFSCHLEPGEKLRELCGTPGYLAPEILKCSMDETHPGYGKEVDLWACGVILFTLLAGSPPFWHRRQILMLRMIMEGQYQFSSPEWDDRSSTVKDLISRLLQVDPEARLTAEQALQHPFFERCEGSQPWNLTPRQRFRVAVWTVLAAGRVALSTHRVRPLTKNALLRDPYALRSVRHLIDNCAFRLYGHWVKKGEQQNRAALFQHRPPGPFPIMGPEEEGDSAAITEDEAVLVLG

[11] = target: Tyrosine-protein kinase receptor Tie-1 (Homo sapiens) (UniProt P35590); test: Inhibition of TIE1 (unknown origin) assessed as residual activity at 1000 nM by KINOMEscan analysis relative to control
[12] = target: Dual specificity protein kinase CLK4 (Homo sapiens) (UniProt Q9HAZ1); test: Inhibition of CLK4 (unknown origin) assessed as residual activity at 1000 nM by KINOMEscan analysis relative to control
[13] = target: Serine/threonine-protein kinase PRP4 homolog (Homo sapiens) (UniProt Q13523); test: Inhibition of PRP4 (unknown origin) assessed as residual activity at 1000 nM by KINOMEscan analysis relative to control
[14] = target: Tyrosine-protein kinase Srms (Homo sapiens) (UniProt Q9H3Y6); test: Inhibition of SRMS (unknown origin) assessed as residual activity at 1000 nM by KINOMEscan analysis relative to control
[15] = target: T2, Serine/threonine-protein kinase Sgk2 (Homo sapiens) (UniProt Q9HBY8); test: Inhibition of SGK2 (unknown origin) assessed as residual activity at 1000 nM by KINOMEscan analysis relative to control
T2 sequence (whole entry): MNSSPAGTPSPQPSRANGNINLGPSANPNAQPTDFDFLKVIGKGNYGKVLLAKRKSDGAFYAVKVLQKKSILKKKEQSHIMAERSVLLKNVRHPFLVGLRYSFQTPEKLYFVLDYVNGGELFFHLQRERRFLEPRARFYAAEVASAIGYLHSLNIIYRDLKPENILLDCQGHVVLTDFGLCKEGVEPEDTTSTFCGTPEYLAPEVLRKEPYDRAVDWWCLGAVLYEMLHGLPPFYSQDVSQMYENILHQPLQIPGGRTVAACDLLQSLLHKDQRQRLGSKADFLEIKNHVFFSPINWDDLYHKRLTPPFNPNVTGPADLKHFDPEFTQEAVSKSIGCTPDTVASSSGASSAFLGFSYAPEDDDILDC

[16] = tested on: Receptor-type tyrosine-protein kinase FLT3 (Homo sapiens), P36888 [D835H]; test: Inhibition of FLT3 D835H mutant (unknown origin) assessed as residual activity at 1000 nM by KINOMEscan analysis relative to control
[17] = target: Mitogen-activated protein kinase kinase kinase kinase 4 (Homo sapiens) (UniProt O95819); test: Inhibition of MAP4K4 (unknown origin) assessed as residual activity at 1000 nM by KINOMEscan analysis relative to control
[18] = tested on: Hepatocyte growth factor receptor (Homo sapiens), P08581 [M1250T]; test: Inhibition of MET M1250T mutant (unknown origin) assessed as residual activity at 1000 nM by KINOMEscan analysis relative to control

Serine/threonine-protein kinase PRP4 homolog (Homo sapiens), sequence (Q13523 whole entry): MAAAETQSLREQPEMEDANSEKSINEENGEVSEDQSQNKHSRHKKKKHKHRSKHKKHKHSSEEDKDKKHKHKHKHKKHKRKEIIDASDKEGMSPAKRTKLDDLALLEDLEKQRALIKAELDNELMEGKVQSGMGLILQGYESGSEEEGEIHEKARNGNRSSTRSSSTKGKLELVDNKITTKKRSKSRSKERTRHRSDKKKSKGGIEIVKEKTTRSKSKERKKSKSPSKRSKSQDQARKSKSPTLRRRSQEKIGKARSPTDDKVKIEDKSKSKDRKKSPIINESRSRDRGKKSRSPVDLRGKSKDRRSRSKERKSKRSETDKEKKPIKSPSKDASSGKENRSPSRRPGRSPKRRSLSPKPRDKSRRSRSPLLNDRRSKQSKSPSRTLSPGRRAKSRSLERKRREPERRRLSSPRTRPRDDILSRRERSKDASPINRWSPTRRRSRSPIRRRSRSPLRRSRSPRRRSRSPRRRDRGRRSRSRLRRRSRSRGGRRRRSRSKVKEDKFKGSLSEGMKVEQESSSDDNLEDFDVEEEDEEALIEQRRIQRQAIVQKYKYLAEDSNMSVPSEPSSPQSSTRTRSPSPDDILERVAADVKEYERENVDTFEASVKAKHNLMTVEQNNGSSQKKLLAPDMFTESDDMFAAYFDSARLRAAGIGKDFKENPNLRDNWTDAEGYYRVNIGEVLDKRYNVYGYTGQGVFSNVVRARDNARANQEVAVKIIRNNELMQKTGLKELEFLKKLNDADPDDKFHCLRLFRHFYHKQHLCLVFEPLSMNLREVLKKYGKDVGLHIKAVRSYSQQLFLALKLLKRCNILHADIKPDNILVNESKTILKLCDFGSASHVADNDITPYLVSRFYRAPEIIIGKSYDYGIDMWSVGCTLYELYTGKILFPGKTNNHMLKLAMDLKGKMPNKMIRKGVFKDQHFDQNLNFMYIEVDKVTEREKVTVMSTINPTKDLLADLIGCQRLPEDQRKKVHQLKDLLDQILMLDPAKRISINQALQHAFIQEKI
Tyrosine-protein kinase receptor Tie-1 (Homo sapiens), sequence (P35590 whole entry): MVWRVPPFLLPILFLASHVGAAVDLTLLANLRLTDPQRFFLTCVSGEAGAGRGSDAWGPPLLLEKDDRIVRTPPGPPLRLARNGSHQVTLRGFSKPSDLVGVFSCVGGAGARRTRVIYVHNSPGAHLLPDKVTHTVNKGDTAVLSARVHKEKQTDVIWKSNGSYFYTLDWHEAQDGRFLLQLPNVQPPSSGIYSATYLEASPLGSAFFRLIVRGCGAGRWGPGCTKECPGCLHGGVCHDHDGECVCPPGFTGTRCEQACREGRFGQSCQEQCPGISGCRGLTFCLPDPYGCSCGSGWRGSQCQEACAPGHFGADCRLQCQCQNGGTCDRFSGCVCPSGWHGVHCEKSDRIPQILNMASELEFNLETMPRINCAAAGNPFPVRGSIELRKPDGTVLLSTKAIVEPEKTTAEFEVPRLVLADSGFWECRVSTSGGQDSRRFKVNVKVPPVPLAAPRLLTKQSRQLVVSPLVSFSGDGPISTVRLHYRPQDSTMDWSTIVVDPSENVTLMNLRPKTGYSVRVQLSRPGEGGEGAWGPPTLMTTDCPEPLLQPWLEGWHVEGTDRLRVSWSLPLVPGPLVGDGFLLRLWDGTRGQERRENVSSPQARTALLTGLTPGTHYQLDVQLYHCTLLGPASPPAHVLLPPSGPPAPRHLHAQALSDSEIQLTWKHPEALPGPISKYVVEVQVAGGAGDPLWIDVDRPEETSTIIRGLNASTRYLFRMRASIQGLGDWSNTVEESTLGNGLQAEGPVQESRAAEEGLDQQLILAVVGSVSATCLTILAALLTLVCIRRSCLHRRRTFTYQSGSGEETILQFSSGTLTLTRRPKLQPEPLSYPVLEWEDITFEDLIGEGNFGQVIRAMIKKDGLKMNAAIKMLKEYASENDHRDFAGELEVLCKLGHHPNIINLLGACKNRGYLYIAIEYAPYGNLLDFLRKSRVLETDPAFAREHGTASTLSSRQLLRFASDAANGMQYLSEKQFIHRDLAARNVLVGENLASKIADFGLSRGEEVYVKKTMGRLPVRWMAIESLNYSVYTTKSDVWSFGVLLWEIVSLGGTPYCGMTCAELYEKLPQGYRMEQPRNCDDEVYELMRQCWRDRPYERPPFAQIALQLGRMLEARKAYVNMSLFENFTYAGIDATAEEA
Tyrosine-protein kinase Srms (Homo sapiens), sequence (Q9H3Y6 whole entry): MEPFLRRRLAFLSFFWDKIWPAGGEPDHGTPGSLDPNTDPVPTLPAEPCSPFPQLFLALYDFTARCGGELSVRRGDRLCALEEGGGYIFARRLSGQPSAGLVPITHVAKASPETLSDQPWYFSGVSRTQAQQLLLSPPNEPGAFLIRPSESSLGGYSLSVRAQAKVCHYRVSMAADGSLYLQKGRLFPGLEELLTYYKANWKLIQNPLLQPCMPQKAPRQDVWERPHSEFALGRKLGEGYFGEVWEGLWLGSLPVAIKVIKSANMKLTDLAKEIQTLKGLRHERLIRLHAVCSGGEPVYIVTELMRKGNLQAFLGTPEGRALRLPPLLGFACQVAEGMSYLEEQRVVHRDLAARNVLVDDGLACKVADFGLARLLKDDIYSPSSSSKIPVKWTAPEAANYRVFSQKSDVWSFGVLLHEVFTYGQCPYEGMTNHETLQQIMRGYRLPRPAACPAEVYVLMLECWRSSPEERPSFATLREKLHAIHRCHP
Aurora kinase B (Homo sapiens), sequence (Q96GD4 whole entry): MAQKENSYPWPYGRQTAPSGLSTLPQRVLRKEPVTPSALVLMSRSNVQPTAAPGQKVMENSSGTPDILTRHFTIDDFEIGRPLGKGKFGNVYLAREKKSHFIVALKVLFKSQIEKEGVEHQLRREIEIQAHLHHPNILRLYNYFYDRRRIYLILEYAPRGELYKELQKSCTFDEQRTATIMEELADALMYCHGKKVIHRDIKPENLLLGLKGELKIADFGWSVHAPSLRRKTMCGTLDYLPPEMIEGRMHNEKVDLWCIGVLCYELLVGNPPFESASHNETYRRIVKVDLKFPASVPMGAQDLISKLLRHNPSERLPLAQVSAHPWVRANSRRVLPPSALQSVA
Receptor tyrosine-protein kinase erbB-2 (Homo sapiens), sequence (P04626 whole entry): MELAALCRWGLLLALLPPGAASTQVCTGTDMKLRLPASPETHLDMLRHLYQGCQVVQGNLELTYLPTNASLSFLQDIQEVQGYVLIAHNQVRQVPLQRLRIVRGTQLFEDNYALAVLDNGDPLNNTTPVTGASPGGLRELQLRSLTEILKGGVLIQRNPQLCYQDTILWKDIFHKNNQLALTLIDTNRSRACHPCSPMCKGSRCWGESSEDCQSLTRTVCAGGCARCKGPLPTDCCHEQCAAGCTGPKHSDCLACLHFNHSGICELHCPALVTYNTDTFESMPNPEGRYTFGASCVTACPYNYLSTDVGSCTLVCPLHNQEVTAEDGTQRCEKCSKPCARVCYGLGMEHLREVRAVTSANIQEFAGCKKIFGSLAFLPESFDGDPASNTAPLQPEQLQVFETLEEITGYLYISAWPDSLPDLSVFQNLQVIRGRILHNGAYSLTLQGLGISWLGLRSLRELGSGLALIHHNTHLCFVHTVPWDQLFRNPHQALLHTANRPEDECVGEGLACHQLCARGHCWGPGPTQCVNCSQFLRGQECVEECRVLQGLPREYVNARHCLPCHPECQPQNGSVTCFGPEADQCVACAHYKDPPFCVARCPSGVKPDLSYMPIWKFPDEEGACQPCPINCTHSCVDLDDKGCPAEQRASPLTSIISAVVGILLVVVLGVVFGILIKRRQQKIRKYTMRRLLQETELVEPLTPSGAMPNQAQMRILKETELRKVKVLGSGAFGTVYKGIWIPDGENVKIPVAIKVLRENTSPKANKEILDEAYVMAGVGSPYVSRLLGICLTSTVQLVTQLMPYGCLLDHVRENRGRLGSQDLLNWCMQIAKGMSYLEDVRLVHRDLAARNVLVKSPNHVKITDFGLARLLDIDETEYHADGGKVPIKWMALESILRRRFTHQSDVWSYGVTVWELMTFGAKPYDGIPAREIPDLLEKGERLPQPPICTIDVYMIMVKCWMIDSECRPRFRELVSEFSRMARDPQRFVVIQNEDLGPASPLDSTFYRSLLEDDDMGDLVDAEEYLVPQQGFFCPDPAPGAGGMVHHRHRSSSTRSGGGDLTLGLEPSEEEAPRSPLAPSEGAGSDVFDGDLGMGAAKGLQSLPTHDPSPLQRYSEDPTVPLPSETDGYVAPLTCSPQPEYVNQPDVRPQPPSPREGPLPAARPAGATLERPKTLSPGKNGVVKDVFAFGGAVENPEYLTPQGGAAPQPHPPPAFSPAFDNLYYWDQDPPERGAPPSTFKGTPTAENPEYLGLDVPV
Cyclin-dependent kinase 18 (Homo sapiens), sequence (Q07002 whole entry): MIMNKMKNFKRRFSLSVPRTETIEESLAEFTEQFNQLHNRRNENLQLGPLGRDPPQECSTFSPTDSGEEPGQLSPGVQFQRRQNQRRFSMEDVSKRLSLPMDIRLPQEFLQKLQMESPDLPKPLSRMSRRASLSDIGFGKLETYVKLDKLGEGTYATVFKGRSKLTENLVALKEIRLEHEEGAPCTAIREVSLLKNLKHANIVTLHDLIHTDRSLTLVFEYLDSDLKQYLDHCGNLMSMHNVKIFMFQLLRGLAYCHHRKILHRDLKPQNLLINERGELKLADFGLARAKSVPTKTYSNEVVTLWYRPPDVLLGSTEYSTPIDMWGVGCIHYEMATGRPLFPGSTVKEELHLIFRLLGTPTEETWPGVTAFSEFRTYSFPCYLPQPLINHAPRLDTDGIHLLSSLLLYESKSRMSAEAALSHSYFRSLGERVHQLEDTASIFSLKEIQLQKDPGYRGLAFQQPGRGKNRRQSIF

| Compound | Activity [1] [%] | Activity [2] [%] | Activity [3] [%] | Activity [4] [%] | Activity [5] [%] | Activity [6] [%] | Activity [7] [%] | Activity [8] [%] | Activity [9] [%] | Activity [10] [%] | Activity [11] [%] | Activity [12] [%] | Activity [13] [%] | Activity [14] [%] | Activity [15] [%] | Activity [16] [%] | Activity [17] [%] | Activity [18] [%] |
| --- | --- | --- | --- | --- | --- | --- | --- | --- | --- | --- | --- | --- | --- | --- | --- | --- | --- | --- |
| COc1cc2nc(C)nc(N[C@H](C)c3cccc(-c4cn[nH]c4)c3)c2cc1OC | 100 | 72 | 78 | 76 | 73 | 79 | 93 | 99 | 90 | 59 | 87 | 93 | 94 | 87 | 94 | 100 | 98 | 100 |
| COc1cc2ncnc(N[C@H](C)c3cccc4ccccc34)c2cc1OC | 1.7 | 92 | 100 | 26 | 100 | 98 | 100 | 100 | 100 | 100 | 100 | 100 | 95 | 83 | 51 | 96 | 100 | 98 |
